For assay [1], the system named is cisplatin induced emesis in the ferret. The assay is described as follows: cisplatin-induced emesis in the ferret. The assay is classed as in vivo. The following applies: for anti-emetic effect (in words): emesis model in the ferret, compound A 30 and 100 mg/kg, ondansetron 16 mg/kg; for Number of Emesis periods / Number of Retches / Number of Vomits: 3 h observation. The text has this: The preferred model to assess an anti emetic potential in animals is the cisplatin-induced emesis in the ferret in which the effects of 5HT3A and NK1 antagonists have been thoroughly investigated. The method, which detects antiemetic activity, follows that described by Gardner et al (Brit. J. Pharmacol., 116, 3158-3163, 1995).
Sixty minutes before administration of the test substance, ferrets are placed in individual stainless steel cages (40 x 50 x 34 cm) with a grid floor. Then, the animals are challenged with cisplatin (10 mg/kg i.p.), and immediately observed over a 3-hour period for: • Number of ferrets showing retches and vomits; • Latency to first retching (h:min:s); • Latency to first vomiting (h:min:s); • Retching (number of retches); • Vomiting (number of vomits); • Number of emesis periods; • Mean duration of emesis periods (min:s); • Severe behavioral side effects. Retching is defined as a rhythmic respiratory movement against a closed glottis, while vomiting is defined as a forced expulsion of upper gastrointestinal contents.
The assay as described above was used to evaluate the anti emetic effects of melanocortin-4 receptor antagonists.
Eight ferrets were studied per group. The test substance was evaluated at two doses (30 and 100 mg/kg), administered p.o. 90 minutes before cisplatin, and compared with an appropriate vehicle control group (vehicle administered 90 minutes before cisplatin).
Quantitative data was analyzed by comparing treated groups with vehicle control using unpaired Student's t tests.
Comparison between treated groups and vehicle control was done using Mann-Whitney U tests.

The target of a further assay is MC-4 receptor (Homo sapiens, UniProt P32245). As to the kind of experiment: block of the MC-4 receptor (internal finding, no method given).
Where [2] appears, read: group mean (8 ferrets), Compound A 30 mg/kg p.o. 1.5 h before cisplatin 10 mg/kg i.p.
Setting [3] is: group mean (8 ferrets), Compound A 100 mg/kg p.o. 1.5 h before cisplatin 10 mg/kg i.p.
Where [4] appears, read: individual animal, Compound A 30 mg/kg p.o. 1.5 h before cisplatin 10 mg/kg i.p.
Where [5] appears, read: individual animal, Compound A 100 mg/kg p.o. 1.5 h before cisplatin 10 mg/kg i.p.
[6] abbreviates: group mean (8 ferrets), Ondansetron 16 mg/kg p.o. 1 h before cisplatin 10 mg/kg i.p.
[7] abbreviates: individual animal, Ondansetron 16 mg/kg p.o. 1 h before cisplatin 10 mg/kg i.p.

Each structure is given as a SMILES string. Several values for one entry are separate records, joined by “and”; a condition that tells them apart may be missing. Equal values may be shown once.

MC-4 receptor, sequence (P32245 whole entry): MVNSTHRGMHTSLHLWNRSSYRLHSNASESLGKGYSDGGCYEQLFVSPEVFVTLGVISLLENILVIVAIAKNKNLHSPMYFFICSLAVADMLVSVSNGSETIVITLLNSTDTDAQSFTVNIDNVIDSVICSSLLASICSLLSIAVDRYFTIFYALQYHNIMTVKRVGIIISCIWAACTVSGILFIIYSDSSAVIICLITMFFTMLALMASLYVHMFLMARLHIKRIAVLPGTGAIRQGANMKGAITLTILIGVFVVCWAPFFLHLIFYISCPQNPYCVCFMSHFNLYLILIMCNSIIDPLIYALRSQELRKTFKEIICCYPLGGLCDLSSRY

Regarding `CC[C@H](COc1cccnc1C1CCN(C(=O)[C@@H](Cc2ccc(Cl)cc2Cl)NC(=O)N2CCCC2)CC1)N1CCCC1` [Compound A], the “anti-emetic effect (in words)” value in assay [1] was “pronounced anti-emetic properties”. The “Number of Emesis periods” value in assay [1] (setting [2]) was 6.4; in assay [1] (setting [3]), 2.3; in assay [1] (setting [4]), 14 and 4 and 7 and 0 (2×) and 3 and 13 and 10; in assay [1] (setting [5]), 5 and 0 (4×) and 1 and 8 and 4. In addition, the “Number of Retches” value was 64.4 in assay [1] (setting [2]); 19.9 in assay [1] (setting [3]); 156 and 26 and 90 and 0 (2×) and 41 and 118 and 84 in assay [1] (setting [4]); 28 and 0 (4×) and 10 and 83 and 38 in assay [1] (setting [5]). The “Number of Vomits” value is 2.4 in assay [1] (setting [2]); 0.8 in assay [1] (setting [3]); 9 and 0 (3×) and 2 (2×) and 1 and 5 in assay [1] (setting [4]); 2 (3×) and 0 (5×) in assay [1] (setting [5]).

In the case of `Cc1nccn1CC1CCc2c(c3ccccc3n2C)C1=O` (stereo not shown) [Ondansetron, ondansetron, reference compound], on MC-4 receptor, the “block of the MC-4 receptor” value was “doesn't block”; the “separation between 5HT3 and MC-4” value is recorded as “more than 10000 fold”. The “anti-emetic effect (in words)” value in assay [1] was “clear anti-emetic effect”. Moreover, in assay [1] (setting [6]), the “Number of Emesis periods” value is on record as 5.0, the “Number of Retches” value turned out to be 41.1 and the “Number of Vomits” value was 1.9. In addition, in assay [1] (setting [7]), the “Number of Emesis periods” value was 0 (4×) and 14 (2×) and 3 and 9; the “Number of Retches” value was 0 (4×) and 113 and 26 and 56 and 134; the “Number of Vomits” value was 0 (5×) and 2 and 6 and 7.

Values taken from EP2072050A1, “Compounds with anti-emetic effect” (Santhera Pharmaceuticals (Schweiz) AG, priority 2007, dated 2009).
